IC50 data for three compounds are collected here from US20080306096A1, “Quinazoline Derivatives, Process for Their Preparation and Their Use as Anti-Cancer Agents” (ASTRAZENECA AB, priority 2005, published 2008).

SMILES strings stand for the structures.

T1 sequence (P15056 whole entry): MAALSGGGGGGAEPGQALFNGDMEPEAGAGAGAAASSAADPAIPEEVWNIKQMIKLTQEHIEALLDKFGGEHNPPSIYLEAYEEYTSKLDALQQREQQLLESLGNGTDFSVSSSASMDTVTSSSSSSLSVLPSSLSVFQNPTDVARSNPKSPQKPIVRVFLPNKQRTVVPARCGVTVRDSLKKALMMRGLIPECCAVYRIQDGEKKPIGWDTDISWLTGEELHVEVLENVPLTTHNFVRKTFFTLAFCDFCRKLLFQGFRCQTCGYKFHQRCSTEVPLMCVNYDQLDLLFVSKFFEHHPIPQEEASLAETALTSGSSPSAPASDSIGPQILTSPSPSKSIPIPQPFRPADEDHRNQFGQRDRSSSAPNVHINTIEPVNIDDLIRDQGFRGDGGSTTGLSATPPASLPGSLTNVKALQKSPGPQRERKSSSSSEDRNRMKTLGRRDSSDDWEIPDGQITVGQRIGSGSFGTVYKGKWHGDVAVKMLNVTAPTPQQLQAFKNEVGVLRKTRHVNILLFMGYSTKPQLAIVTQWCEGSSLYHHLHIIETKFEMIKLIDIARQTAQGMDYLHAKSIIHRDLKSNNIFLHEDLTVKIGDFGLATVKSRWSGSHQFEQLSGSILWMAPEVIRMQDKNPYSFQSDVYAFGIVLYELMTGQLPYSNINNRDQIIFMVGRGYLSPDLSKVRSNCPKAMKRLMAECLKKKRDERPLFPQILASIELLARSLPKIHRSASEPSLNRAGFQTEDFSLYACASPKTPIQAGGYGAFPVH

The assay has as its target T1, human recombinant, purified wild type His-B-Raf protein kinase (Homo sapiens, UniProt P15056).
T1 construct: His
The assay can be described thus: B-Raf In Vitro ELISA Assay. The format is biochemical. Particulars: phosphorylation of MEK1; 2.5 nM B-Raf, 0.15 μM MEK1, 10 μM ATP; 1 hour preincubation at 25° C. As for the experimental part: B-Raf In Vitro ELISA Assay
Activity of human recombinant, purified wild type His-B-Raf protein kinase was determined in vitro using an enzyme-linked immunosorbent assay (ELISA) assay format, which measures phosphorylation of the B-Raf substrate, human recombinant, purified His-derived (detagged) MEK1. The reaction utilized 2.5 nM B-Raf, 0.15 μM MEK1 and 10 μM adenosine triphosphate (ATP) in 40 mM N-(2-hydroxyethyl)piperazine-N′-(2-ethanesulfonic acid hemisodium salt (HEPES), 5 mM 1,4-dithio-DL-threitol (DTT), 10 mM MgCl2, 1 mM ethylenediaminetetraacetic acid (EDTA) and 0.2 M NaCl (1×HEPES buffer), with or without compound at various concentrations, in a total reaction volume of 25 μl in 384 well plates. B-Raf and compound were preincubated in 1×HEPES buffer for 1 hour at 25° C. Reactions were initiated with addition of MEK1 and ATP in 1×HEPES buffer and incubated at 25° C. for 50 minutes and reactions stopped by addition of 10 μl 175 mM EDTA (final concentration 50 mM) in 1×HEPES buffer. 5 μl of the assay mix was then diluted 1:20 into 50 mM EDTA in 1×HEPES buffer, transferred to 384 well black high protein binding plates and incubated overnight at 4° C. Plates were washed in tris buffered saline containing 0.1% 5 Tween20 (TBST), blocked with 50 μl Superblock (Pierce) for 1 hour at 25° C., washed in TBST, incubated with 50 μl rabbit polyclonal anti-phospho-MEK antibody (Cell Signaling) diluted 1:1000 in TBS for 2 hours at 25° C., washed with TBST, incubated with 50 μl goat anti-rabbit horseradish peroxidase-linked antibody (Cell Signaling) diluted 1:2000 in TBS for 1 hour at 25° C. and washed with TBST. 50 μl of fluorogenic peroxidase substrate (Quantablu 10-Pierce) was added and following incubation for 45-60 minutes, 50 μl QuantabluSTOP (Pierce) was added. Blue fluorescent product was detected at excitation 325 and emission 420 using a TECAN Ultra plate reader. Data was graphed and IC50s calculated using Excel Fit (Microsoft).
(In general: An ELISA detects its analyte on a solid surface through an enzyme-linked reagent.)
By IC50 is commonly meant the concentration needed to halve the response being measured. As to `COc1cc2c(Nc3cc(NC(=O)c4cccc(C(C)(C)C#N)c4)ccc3C)ncnc2cc1OCc1ccccc1` [Example 5, N-(3-{[7-(Benzyloxy)-6-methoxyquinazolin-4-yl]amino}-4-methylphenyl)-3-(1-cyano-1-methylethyl)benzamide], the IC50 was found to be 1100 nM. Next, `COc1cc2ncnc(Nc3cc(NC(=O)c4cccc(C5(C#N)CCC5)c4)ccc3C)c2cc1OC` [Example 7, 3-(1-Cyanocyclobutyl)-N-{3-[(6,7-dimethoxyquinazolin-4-yl)amino]-4-methylphenyl}benzamide]: 193 nM; `COc1cc2ncnc(Nc3cc(NC(=O)c4cc(C(F)(F)F)ccc4F)ccc3C)c2cc1OC` [Example 15, N-{3-[(6,7-Dimethoxyquinazolin-4-yl)amino]-4-methylphenyl}-2-fluoro-5-(trifluoromethyl)benzamide]: 370 nM.
